Measurements from patent US11780826B2 (Amgen Inc., priority 2017, dated 2023).

test system: Bovine cardiac myofibrils; test: In vitro model of dose-dependent myofibril ATPase modulation (AC1.4, pyruvate kinase/lactate dehydrogenase-coupled ATPase assay at pCa25); format: biochemical; settings: concentration at which ATPase activity was 1.4-fold higher than the bottom of the dose curve, mean of a minimum of two independent tests
How it was run: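 Coupled-enzyme ATPase on bovine heart myofibrils, 1 mM ATP, EGTA/CaCl2 buffered; 340 nm readout.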

SMILES | AC1.4 [µM]
O=C(N[C@@H](c1ccc(C(F)(F)F)cc1F)C1COC1)[C@H]1C[C@H]2C[C@H]2N1C(=O)c1ccnc(C(F)(F)F)c1 [Example 392, (1R,3R,5R)-N-((R)-(2-fluoro-4-(trifluoromethyl)phenyl)(3-oxetanyl)methyl)-2-((2-(trifluoromethyl)-4-pyridinyl)carbonyl)-2-azabicyclo[3.1.0]hexane-3-carboxamide] | 1.268
CS(=O)(=O)c1cc(C(=O)N2C[C@H]3C[C@H]3[C@@H]2C(=O)N[C@@H](c2cc(F)c(Cl)cc2F)C2CC2)ccn1 [Example 393, (1R,2R,5S)-N-((R)-(4-chloro-2,5-difluorophenyl)(cyclopropyl)methyl)-3-((2-(methylsulfonyl)-4-pyridinyl)carbonyl)-3-azabicyclo[3.1.0]hexane-2-carboxamide] | 1.3425
N#CC1CN(S(=O)(=O)N2CCC[C@H](C(=O)N3CCC[C@@H]3C(=O)NCc3cc(F)ccc3F)C2)C1 [Example 394, 1-(((3S)-1-((3-cyano-1-azetidinyl)sulfonyl)-3-piperidinyl)carbonyl)-N-(2,5-difluorobenzyl)-D-prolinamide] | 1.3725
CCS(=O)(=O)c1cccc(C(=O)N2[C@@H](C(=O)N[C@@H](c3cc(F)c(Cl)cc3F)[C@H](C)O)C[C@H]3C[C@H]32)c1 [Example 395, (1R,3R,5R)-N-((1S,2S)-1-(4-chloro-2,5-difluorophenyl)-2-hydroxypropyl)-2-(3-(ethylsulfonyl)benzoyl)-2-azabicyclo[3.1.0]hexane-3-carboxamide] | 1.361
N#CC1CN(S(=O)(=O)c2cccc(C(=O)N3CCC[C@@H]3C(=O)NCc3ccccc3Cl)c2)C1 [Example 396, N-(2-chlorobenzyl)-1-((3-((3-cyano-1-azetidinyl)sulfonyl)phenyl)carbonyl)-D-prolinamide] | 1.3975
O=C(N[C@@H](c1cc(F)c(Cl)cc1F)C1CC1)[C@H]1C[C@@H](O)CN1C(=O)c1ccnc(C(F)(F)F)c1 [Example 397, (4R)-N-((R)-(4-chloro-2,5-difluorophenyl)(cyclopropyl)methyl)-4-hydroxy-1-((2-(trifluoromethyl)-4-pyridinyl)carbonyl)-D-prolinamide] | 1.361
O=C(NCc1ccc(C(F)(F)F)cc1)[C@H]1CCCN1C(=O)[C@H]1CCCN(S(=O)(=O)N2CC(c3cccc(Cl)c3)C2)C1 [Example 398, 1-(((3S)-1-((3-(3-chlorophenyl)-1-azetidinyl)sulfonyl)-3-piperidinyl)carbonyl)-N-(4-(trifluoromethyl)benzyl)-D-prolinamide] | 1.4045
O=C(N[C@@H](c1cc(F)c(Cl)cc1F)C1COC1)[C@H]1C[C@@H](O)CN1C(=O)c1ccnc(C(F)(F)F)c1 [Example 399, (4R)-N-((R)-(4-chloro-2,5-difluorophenyl)(3-oxetanyl)methyl)-4-hydroxy-1-((2-(trifluoromethyl)-4-pyridinyl)carbonyl)-D-prolinamide] | 1.4045
N#CC1CN(S(=O)(=O)N2CCC[C@H](C(=O)N3CCC[C@@H]3C(=O)NCc3cnc(C(F)(F)F)nc3)C2)C1 [Example 400, 1-(((3S)-1-((3-cyano-1-azetidinyl)sulfonyl)-3-piperidinyl)carbonyl)-N-((2-(trifluoromethyl)-5-pyrimidinyl)methyl)-D-prolinamide] | 1.4048
CS(=O)(=O)c1cccc(C(=O)N2CC=C[C@@H]2C(=O)N[C@@H](c2ccc(C(F)(F)F)cc2F)C2CC2)c1 [Example 401, (2R)-N-((R)-cyclopropyl(2-fluoro-4-(trifluoromethyl)phenyl)methyl)-1-(3-(methylsulfonyl)benzoyl)-2,5-dihydro-1H-pyrrole-2-carboxamide] | 1.378
CCS(=O)(=O)c1cccc(C(=O)N2[C@@H](C(=O)N[C@@H](c3ccc(Cl)cc3)C3COC3)C[C@H]3C[C@H]32)c1 [Example 403, (1R,3R,5R)-N-((R)-(4-chlorophenyl)(3-oxetanyl)methyl)-2-(3-(ethylsulfonyl)benzoyl)-2-azabicyclo[3.1.0]hexane-3-carboxamide] | 1.4025
N#CC1CN(S(=O)(=O)N2CCC[C@H](C(=O)N3CCC[C@@H]3C(=O)N[C@H](CO)c3cccc(C(F)(F)F)c3)C2)C1 [Example 404, 1-(((3S)-1-((3-cyano-1-azetidinyl)sulfonyl)-3-piperidinyl)carbonyl)-N-((1S)-2-hydroxy-1-(3-(trifluoromethyl)phenyl)ethyl)-D-prolinamide] | 1.4525
C[C@H](O)[C@@H](NC(=O)[C@H]1C[C@H]2C[C@H]2N1C(=O)c1cccc(S(C)(=O)=O)c1)c1cc(F)c(Cl)cc1F [Example 405, (1R,3R,5R)-N-((1S,2S)-1-(4-chloro-2,5-difluorophenyl)-2-hydroxypropyl)-2-(3-(methylsulfonyl)benzoyl)-2-azabicyclo[3.1.0]hexane-3-carboxamide] | 1.4065
N#CC1CN(S(=O)(=O)N2CCC[C@H](C(=O)N3CCC[C@@H]3C(=O)NCc3cccc(Cl)c3F)C2)C1 [Example 406, N-(3-chloro-2-fluorobenzyl)-1-(((3S)-1-((3-cyano-1-azetidinyl)sulfonyl)-3-piperidinyl)carbonyl)-D-prolinamide] | 1.4675
CS(=O)(=O)c1cccc(C(=O)N2C[C@H]3C[C@H]3[C@@H]2C(=O)N[C@@H](c2ccc(C(F)(F)F)cc2F)C2CC2)c1 [Example 407, (1R,2R,5S)-N-((R)-cyclopropyl(2-fluoro-4-(trifluoromethyl)phenyl)methyl)-3-(3-(methylsulfonyl)benzoyl)-3-azabicyclo[3.1.0]hexane-2-carboxamide] | 1.427
CN(C)S(=O)(=O)c1cccc(C(=O)N2CCC[C@@H]2C(=O)N[C@H](c2ccc(Cl)c(F)c2)C2CC2)c1 [Example 408, N-((S)-(4-chloro-3-fluorophenyl)(cyclopropyl)methyl)-1-(3-(dimethylsulfamoyl)benzoyl)-D-prolinamide] | 1.479
O=C(N[C@@H](c1ccc(C(F)(F)F)cc1F)C1COC1)[C@H]1C[C@H]2C[C@H]2N1C(=O)c1cc(C(F)(F)F)ccn1 [Example 409, (1R,3R,5R)-N-((R)-(2-fluoro-4-(trifluoromethyl)phenyl)(3-oxetanyl)methyl)-2-((4-(trifluoromethyl)-2-pyridinyl)carbonyl)-2-azabicyclo[3.1.0]hexane-3-carboxamide] | 1.484
N#CC1CN(S(=O)(=O)N2CCC[C@H](C(=O)N3CCC[C@@H]3C(=O)NCc3ccc(C(F)(F)F)nc3)C2)C1 [Example 410, 1-(((3S)-1-((3-cyano-1-azetidinyl)sulfonyl)-3-piperidinyl)carbonyl)-N-((6-(trifluoromethyl)-3-pyridinyl)methyl)-D-prolinamide] | 1.4853
CC(C)(C#N)c1cccc(C(=O)N2[C@@H](C(=O)N[C@@H](c3ccc(C(F)(F)F)cc3F)C3COC3)C[C@H]3C[C@H]32)c1 [Example 412, (1R,3R,5R)-2-(3-(2-cyano-2-propanyl)benzoyl)-N-((R)-(2-fluoro-4-(trifluoromethyl)phenyl)(3-oxetanyl)methyl)-2-azabicyclo[3.1.0]hexane-3-carboxamide] | 1.495
N#CC1CN(S(=O)(=O)N2CCC[C@H](C(=O)N3CCC[C@@H]3C(=O)NCc3ccc(CF)cc3)C2)C1 [Example 413, 1-(((3S)-1-((3-cyano-1-azetidinyl)sulfonyl)-3-piperidinyl)carbonyl)-N-(4-(fluoromethyl)benzyl)-D-prolinamide] | 1.511
CC(C)c1cccc(C(=O)N2CCC[C@@H]2C(=O)N[C@@H](c2ccc(C(F)(F)F)cc2F)C2CC2)c1 [Example 414, N-((R)-cyclopropyl(2-fluoro-4-(trifluoromethyl)phenyl)methyl)-1-(3-(2-propanyl)benzoyl)-D-prolinamide] | 1.515
C[C@H](C(=O)N[C@H](C)c1ccc(C(F)(F)F)cc1)N(C)C(=O)[C@H]1CCCN(S(=O)(=O)N2CC(C#N)C2)C1 [Example 415, (3S)-1-((3-cyano-1-azetidinyl)sulfonyl)-N-methyl-N-((1R)-1-methyl-2-oxo-2-(((1R)-1-(4-(trifluoromethyl)phenyl)ethyl)amino)ethyl)-3-piperidinecarboxamide] | 1.522
CS(=O)(=O)c1cc(C(=O)N2C[C@@H](F)C[C@@H]2C(=O)N[C@@H](c2cc(F)c(C(F)(F)F)cc2F)C2CC2)ccn1 [Example 416, (4S)-N-((R)-cyclopropyl(2,5-difluoro-4-(trifluoromethyl)phenyl)methyl)-4-fluoro-1-((2-(methylsulfonyl)-4-pyridinyl)carbonyl)-D-prolinamide] | 1.528
COc1cc(C)ccc1CNC(=O)[C@H]1CCCN1C(=O)[C@H]1CCCN(S(=O)(=O)N2CC(C#N)C2)C1 [Example 417, 1-(((3S)-1-((3-cyano-1-azetidinyl)sulfonyl)-3-piperidinyl)carbonyl)-N-(2-methoxy-4-methylbenzyl)-D-prolinamide] | 1.53
N#CC1CN(S(=O)(=O)N2CCC[C@H](C(=O)N3CCC[C@@H]3C(=O)NCc3cccc(F)c3Cl)C2)C1 [Example 418, N-(2-chloro-3-fluorobenzyl)-1-(((3S)-1-((3-cyano-1-azetidinyl)sulfonyl)-3-piperidinyl)carbonyl)-D-prolinamide] | 1.5305
C[C@H](C(=O)N[C@H](C)c1ccc(Cl)cc1F)N(C)C(=O)[C@@H]1CN(S(=O)(=O)N2CC(C#N)C2)CCO1 [Example 419, (2S)-N-((2R)-1-(((1R)-1-(4-chloro-2-fluorophenyl)ethyl)amino)-l-oxo-2-propanyl)-4-((3-cyano-1-azetidinyl)sulfonyl)-N-methyl-2-morpholinecarboxamide] | 1.542
N#C[C@H]1C[C@H](S(=O)(=O)c2cccc(C(=O)N3CCCC[C@@H]3C(=O)NCc3ccc(Cl)nc3)c2)C1 [Example 420, (2R)-N-((6-chloro-3-pyridinyl)methyl)-1-((3-((trans-3-cyanocyclobutyl)sulfonyl)phenyl)carbonyl)-2-piperidinecarboxamide] | 1.5455
